Our source for the IC50 values is patent publication US20110098288A1, “SULFONAMIDES AS ZAP-70 INHIBITORS” (priority 2008, published 2011).

Where a name gives a salt, the structure may show the parent alone.

Assay [1] has as its target T1, ZAP-70 (Homo sapiens, UniProt P43403).
T1 construct: endogenous in cells; host or cells: cell lysate
T1 sequence (P43403 1-619): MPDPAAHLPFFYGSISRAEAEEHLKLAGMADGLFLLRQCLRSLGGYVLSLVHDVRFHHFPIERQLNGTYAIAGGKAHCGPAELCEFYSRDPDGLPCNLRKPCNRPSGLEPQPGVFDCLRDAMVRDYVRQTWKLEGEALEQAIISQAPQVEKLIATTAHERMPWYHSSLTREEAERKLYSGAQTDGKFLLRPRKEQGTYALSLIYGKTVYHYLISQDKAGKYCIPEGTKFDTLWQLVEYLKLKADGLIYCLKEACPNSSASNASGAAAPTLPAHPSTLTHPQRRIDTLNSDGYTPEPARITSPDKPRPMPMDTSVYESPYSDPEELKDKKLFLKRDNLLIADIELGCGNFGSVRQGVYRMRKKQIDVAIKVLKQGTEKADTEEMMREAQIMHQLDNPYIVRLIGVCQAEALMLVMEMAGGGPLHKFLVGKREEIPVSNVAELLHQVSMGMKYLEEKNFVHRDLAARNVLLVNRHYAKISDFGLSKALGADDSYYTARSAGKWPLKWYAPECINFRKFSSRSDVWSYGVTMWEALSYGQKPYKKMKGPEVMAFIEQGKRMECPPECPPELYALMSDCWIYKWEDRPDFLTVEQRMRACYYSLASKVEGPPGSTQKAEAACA
Description: ZAP-70 kinobeads assay. The following applies: competition with immobilized aminopyrido-pyrimidine ligand 24 in cell lysate; ZAP-70 detected by dot blot. In kind it is binding. Summed up:
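Cell lysate aliquots incubated with test compounds at various concentrations plus affinity beads carrying immobilized aminopyrido-pyrimidine ligand 24. Bead-captured proteins eluted; ZAP-70 quantified by specific antibody dot blot with infrared detection.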

Assay [2] deals with Jurkat cells. Description: Calcium release assay (Fluo-4 flow cytometry after anti-CD3 stimulation). The assay is classed as cell-based. The following applies: Homo sapiens, Jurkat cell line J77, anti-CD3 activation, read-out: IC50 (Calcium ion release in cells). As to the method: Compounds of the present invention were tested in a Calcium release assay as described below.
The development of fluorescent probes makes it possible to measure the concentration of intracellular free Calcium ions in single living cells. Cells are first loaded with a cell-permeable Ca^2+-sensitive dye, then the test compound is added. Finally, cells are activated through the T cell receptor with an anti-CD3 antibody shortly before data acquisition on the flow cytometer. The release of Ca^2+ is measured as a function of time after cell stimulation. This protocol describes the flow cytometry method using the Fluo-3 and Fluo-4 dyes (Minta et al., 1989, J. Biol. Chem. 264(14):8171-8178) to measure the intracellular Ca^2+ concentration in Jurkat cells (see also June et al., 1997, Measurement of intracellular calcium ions by flow cytometry. In: Current Protocols in Cytometry (1997) Unit 9.8.1-9.8.19, John Wiley & Sons, Inc.).
In general, cells should be handled in the shortest time possible to assure their stability. Therefore the preparation of all materials in advance is highly recommended as well as using any incubation or centrifugation time to prepare the next steps (e.g. preparing compound dilution or starting the flow cytometer).
1) Prepare a work plan indicating the number of samples to be analyzed including controls. 2) Cell harvest: Centrifuge 50 to 100 ml of a Jurkat cell culture for 5 minutes at 1100 rpm. Discard the supernatant, pool the resuspended cell pellets in a single 50 ml Falcon tube, and fill up to 50 ml with PBS—CaCl2 (without FCS). Centrifuge again sample again. 3) Resuspend cell pellet with PBS—CaCl2 (without FCS) to achieve a concentration not lower than 10×10^6 cells/ml. Prepare an adequate dilution to evaluate the cell concentration and count the cells. 4) Separate the volume of cells needed to be loaded (for example […] for 20 samples) in a 50 ml Falcon tube. Fill up with PBS—CaCl2 to 900 μl for 107 cells. 5) Prepare in the dark a 1:1 mix of FLUO-4 (1 mM)+Pluronic F-127 (20%). 5 μl of Fluo-4 are needed per 107 cells. 6) Prepare a 1/10 dilution of this mix with PBS—CaCl2 (in the dark; for example 5 μl Fluo-4+5 μl F-127 completed to 100 μl). 7) Add the dye solution to the cells. […] 8) Incubate the sample for 30 minutes in a cell incubator (37° C., 5% CO2). Mix from time to time. 9) During this time prepare the adequate test compound dilution in PBS—CaCl2 (with 10% FCS). The solution should be 10 times more concentrated than the desired final concentration. Vortex each dilution. Prepare also the antibody dilutions: anti-CD3 (1/200) and GAM (1/25). 10) Label FACS tubes and distribute in the corresponding tube 30 μl of the compound dilution or only buffer for the control tubes. 11) After 30 minutes of incubation wash the cells twice in PBS—CaCl2 (with 10% FCS). During the washing steps make sure that the flow cytometer is already “ON” in order to warm the laser. 12) Resuspend the cell pellet in PBS—CaCl2 (with 10% FCS) at a concentration of 1.5×10^6 cells/ml. 13) Distribute 300 μl of cell suspension into the FACS tubes and mix gently. The compound incubation is starting. Keep samples at room temperature in the dark. 14) Open the settings of the cytometer. It is advised to have a template ready which is used for all measurements. Settings of the machine should also be the same from one experiment to the other which permits to evaluate the reproducibility of the cell preparation. 15) In Setup modus control your cell preparation on the cytometer. Cells should fit in the pre-defined gates. 16) During the compound incubation time, check also that cells are responding to the anti-CD3 activation as expected. Set a timer at 8 sec. Add 6 μl of anti-CD3 dilution (0.2 μg/ml final) and mix gently. Add 1 μl of GAM dilution (0.75 μg/ml final) and mix gently. Incubate the samples in water bath at 37° C. while starting timer. After 8 seconds of incubation, acquire data at medium speed for 200 seconds. […]

Turning to `COc1cc(Nc2ncc(F)c(Nc3ccccc3NS(C)(=O)=O)n2)cc(OC)c1` [Example 37, N-(2-(2-(3,5-dimethoxyphenylamino)-5-fluoropyrimidin-4-ylamino)phenyl)methanesulfonamide], the IC50 in assay [1] and in assay [2] was 100 to 1000 nM throughout.
Consider `CS(=O)(=O)Nc1ccccc1Nc1nc(Nc2ccc(OCCCN3CCCCC3)cc2)ncc1F` [Example 90], for which the half-maximal inhibitory concentration (IC50) in assay [1] and in assay [2] was 100 to 1000 nM each time.
`CS(=O)(=O)Nc1ccccc1Nc1nc(Nc2ccc(OCCN3CCCCC3)cc2)ncc1F` [Example 87]: the IC50 was 100 to 1000 nM in assay [1] and less than 100 nM in assay [2].
On to `Cc1cccc(Nc2nc(Nc3cccc(OCCN4CCCCC4)c3)ncc2F)c1NS(C)(=O)=O` [Example 112, N-(2-(5-fluoro-2-(3-(2-(piperidin-1-yl)ethoxy)phenylamino)pyrimidin-4-ylamino)-6-methylphenyl)methanesulfonamide], for which the figures for the IC50 in assay [1] and in assay [2] were less than 100 nM and 100 to 1000 nM, respectively.
Turning to `CS(=O)(=O)Nc1ccccc1Nc1nc(Nc2cccc(OCCN3CCCC3=O)c2)ncc1Cl` [Example 130, N-(2-(5-chloro-2-(3-(2-(2-oxopyrrolidin-1-yl)ethoxy)phenylamino)pyrimidin-4-ylamino)phenyl)methanesulfonamide], the IC50 in assay [1] is 100 to 1000 nM; in assay [2], less than 100 nM.
Turning to `COc1cc(Nc2ncc(Br)c(Nc3ccccc3NS(C)(=O)=O)n2)cc(OC)c1` [Example 105, N-(2-(5-bromo-2-(3,5-dimethoxyphenylamino)pyrimidin-4-ylamino)phenyl)methanesulfonamide], the IC50 in assay [1] was 100 to 1000 nM; in assay [2], less than 100 nM.
In the case of `CS(=O)(=O)Nc1ccccc1Nc1nc(Nc2ccc3cn[nH]c3c2)ncc1F` [Example 32, N-(2-(2-(1H-indazol-6-ylamino)-5-fluoropyrimidin-4-ylamino)phenyl)methanesulfonamide], the 50% inhibitory concentration (IC50) in assay [1] and in assay [2] was 100 to 1000 nM each time.
With `COc1ccc(Nc2ncc(Cl)c(Nc3ccccc3NS(C)(=O)=O)n2)cc1` [Example 139, N-(2-(5-chloro-2-(4-methoxyphenylamino)pyrimidin-4-ylamino)phenyl)methanesulfonamide hydrochloride], the IC50 in assay [1] was 100 to 1000 nM; in assay [2], less than 100 nM.
The corresponding values for `CS(=O)(=O)Nc1ccccc1Nc1nc(Nc2cccc(OCCN3CCCC3)c2)ncc1Cl` [Example 140, N-(2-(5-chloro-2-(3-(2-(pyrrolidin-1-yl)ethoxy)phenylamino)pyrimidin-4-ylamino)phenyl)methanesulfonamide] are less than 100 nM and less than 100 nM.
As to `CS(=O)(=O)Nc1ccccc1Nc1nc(Nc2cccc(OCCN3CCCC3)c2)ncc1F` [Example 95, N-(2-(5-fluoro-2-(3-(2-(pyrrolidin-1-yl)ethoxy)phenylamino)pyrimidin-4-ylamino)phenyl)methanesulfonamide], the IC50 in assay [1] is less than 100 nM; in assay [2], 100 to 1000 nM.
Take `COc1ccc(Nc2ncc(F)c(Nc3ccccc3NS(C)(=O)=O)n2)cc1OC` [Example 36, N-(2-(2-(3,4-dimethoxyphenylamino)-5-fluoropyrimidin-4-ylamino)phenyl)methanesulfonamide]: the 50% inhibitory concentration (IC50) in assay [1] and in assay [2] was 100 to 1000 nM each time.
For the compound `Cc1cccc(Nc2nc(Nc3cccc(OCCN4CCCCC4)c3)ncc2Cl)c1NS(C)(=O)=O` [Example 128, N-(2-(5-chloro-2-(3-(2-(piperidin-1-yl)ethoxy)phenylamino)pyrimidin-4-ylamino)-6-methylphenyl)methanesulfonamide], the IC50 in assay [1] and in assay [2] was less than 100 nM each time.
With `Cc1cc(C)cc(Nc2ncc(F)c(Nc3ccccc3N(C)S(C)(=O)=O)n2)c1` [Example 72, N-(2-(2-(3,5-dimethylphenylamino)-5-fluoropyrimidin-4-ylamino)phenyl)-N-methylmethanesulfonamide], the IC50 is 1000 to 10000 nM in assay [1] and 100 to 1000 nM in assay [2].
Regarding `COc1cc(Nc2nccc(Nc3ccccc3NS(C)(=O)=O)n2)cc(OC)c1OC` [Example 69, N-(2-(2-(3,4,5-trimethoxyphenylamino)pyrimidin-4-ylamino)phenyl)methanesulfonamide], the IC50 in assay [1] and in assay [2] was 100 to 1000 nM throughout.
Regarding `CS(=O)(=O)Nc1ccccc1Nc1nc(Nc2ccc(OCCN3CCOCC3)cc2)ncc1F` [Example 86, N-(2-(5-fluoro-2-(4-(2-morholinoethoxy)phenylamino)pyrimidin-4-ylamino)phenyl)methanesulfonamide], the IC50 in assay [1] and in assay [2] was 100 to 1000 nM each time.
For `CCc1cccc(Nc2nc(Nc3cc(OC)c(OC)c(OC)c3)ncc2F)c1NS(C)(=O)=O` [Example 169, N-(2-ethyl-6-(5-fluoro-2-(3,4,5-trimethoxyphenylamino)pyrimidin-4-ylamino)phenyl)methanesulfonamide], the IC50 in assay [1] was less than 100 nM; in assay [2], 100 to 1000 nM.
For the compound `COc1ccc(Nc2ncc(Br)c(Nc3ccccc3NS(C)(=O)=O)n2)cc1OC` [Example 107, N-(2-(5-bromo-2-(3,4-dimethoxyphenylamino)pyrimidin-4-ylamino)phenyl)methanesulfonamide], the half-maximal inhibitory concentration (IC50) in assay [1] and in assay [2] was less than 100 nM in each case.
As to `CNCCS(=O)(=O)Nc1cccc(Nc2nc(Nc3cc(OC)c(OC)c(OC)c3)ncc2F)c1` [Example 64, N-(3-(5-fluoro-2-(3,4,5-trimethoxyphenylamino)pyrimidin-4-ylamino)phenyl)-2-(methylamino)ethanesulfonamide], the IC50 in assay [1] and in assay [2] was 100 to 1000 nM throughout.
For `COc1ccc(Nc2nc(Nc3cc(OC)c(OC)c(OC)c3)ncc2F)c(NS(C)(=O)=O)c1` [Example 173, N-(2-(5-fluoro-2-(3,4,5-trimethoxyphenylamino)pyrimidin-4-ylamino)-5-methoxyphenyl)methanesulfonamide], the IC50 in assay [1] and in assay [2] was less than 100 nM throughout.
`COc1ccc(Nc2ncc(Cl)c(Nc3ccccc3NS(C)(=O)=O)n2)cc1OCCN1CCCCC1` [Example 125, N-(2-(5-chloro-2-(4-methoxy-3-(2-(piperidin-1-yl)ethoxy)phenylamino)pyrimidin-4-ylamino)phenyl)methanesulfonamide]: the 50% inhibitory concentration (IC50) in assay [1] was less than 100 nM; in assay [2] it was 100 to 1000 nM.
